Results on 13 compounds are retold here after patent US6433008B1, “α-aryl-N-alkylnitrones and pharmaceutical compositions containing the same” (Centaur Pharmaceuticals, Inc., priority 1997, dated 2002).

The test system of experiment [1] is MBP-induced EAE in Lewis rats. Description: Prevention of MBP-induced experimental allergic encephalomyelitis (EAE). It is filed as in vivo. To be noted: 100 mg/kg b.i.d. oral gavage, day 3 to day 16 post-inoculation. On the procedure: Experimental allergic encephalomyelitis (EAE) induced by injection of guinea pig myelin basic protein (MBP) or MBP peptide fragments is reported to be a useful model for MS. See, for example, D. E. McFarlin et al., “Recurrent Experimental Allergic Encephalomyelitis in the Lewis Rat,” The Journal of Immnunology, 113(2): 712-715 (1974).
Female, Lewis rats of 8 weeks of age (180-250 g) were weighed and then given two intradermal injections (0.1 mL each) of 0.4 mg of M. tuberculin in 0.1 mL incomplete Freunds adjuvant and […] of myelin basic protein in 0.1 mL of saline into the base of the tail. Animals were weighed daily and given a clinical score beginning on Day 8, post inoculation, according to the following criteria:
2.5=Hind limb paralysis and front limb weakness
3.0=Hind and front limb paralysis
4.0=Moribund state or death
On day 3, post-inoculation animals were administered b.i.d either a test compound (100 mg/kg) or 1% methylcellulose vehicle by oral gavage up to and including day 16.

Experiment [2] concerns rats injected with Aβ(25-35) and ibotenate into the hippocampus. Description: Reduction of cognitive defects due to Aβ-peptide/ibotenate (Morris water maze). It is filed as in vivo, Male Sprague-Dawley rats. To be noted: 10 mg/kg oral gavage daily, Morris water maze 9-11 days after injection. On the procedure:
The procedures employed in this example are similar to those described in Dornan et al., NeuroReport 5, 165-168 (1993). Male Sprague-Dawley rats (200-300 g) were weighed and given 10 mg/kg of α-(2-ethoxyphenyl)-N-tert-butylnitrone or 1% methylcellulose by oral gavage. One hour later, the rats were stereotaxically injected into the CA1 region of their hippocampus with 8 nmol of Aβ(25-35) and 6 nmol of ibotenate per side (coordinates from bregma −3.6=AP, ±2.2=ML, −3.0=DV from the top of the dura). Controls were injected with PBS (pH 7.4). All injections were 1.5 μL in volume. The animals receiving PBS were orally dosed with 1% methylcellulose. Oral dosing continued daily until the end of the Morris water maze testing.
Nine to eleven days following injection, animals were tested in a Morris water maze task to measure spatial memory and learning. Animals were given three days of testing with four to six trials per day. The last trial on the fourth day was a probe trial where the platform was removed and time in quadrant and annulae crossings were determined. Following the behavioral testing, animals were perfused with 10% neutral formalin. The brain was post-fixed for 1 week in 10% formalin and then sliced for histological evaluation. Image analysis of cresyl violet staining was used to compare the neuronal loss (lesion volume) in the hippocampus between groups.

The test system of a further experiment is MRL/MpJ Fas^lpr mice. Description: Reduction of cognitive deficits in autoimmune mice (T-maze task). It is filed as in vivo. To be noted: 100 mg/kg oral gavage daily for 8 to 9 weeks, Fas^lpr mice tested at 4 months of age. How it is done:
MRL/MpJfas^lpr (“mutant mice” or “Fas^lpr”) strains of mice have been described as useful models of Lupus due to their autoimmune lymphoproliferative pathology. In particular, the mutant mice show a cognitive deficit at approximately four months of age, which is not observed at two months of age. See, for example, Forster et al., 1988, Behav. Neural Biology, 49, 139-151.
In the experiment, male MRL/MpJ Fas^lPr and normal MRL/MpJ++ mice of 8 weeks of age were weighed and administered 100 mg/kg of the test compound (either α-(2-ethoxyphenyl)-N-tert-butylnitrone or α-(4-ethoxyphenyl)-N-cyclohexylnitrone) or 1% methylcellulose vehicle by oral gavage daily for 8 to 9 weeks. At 4 months of age, the mice were tested for avoidance, discrimination, session criteria and acquisition in a one day T-maze task with a maximum of 25 trials. Criteria was met with four of five trials correct with the last two correct trials being consecutive in avoidance and discrimination.

On to `CCOc1cc(C=[N+]([O-])C(C)(C)C)ccc1OC` [Example 3, α-(3-Ethoxy-4-methoxyphenyl)-N-tert-butylnitrone], for which, in experiment [1], the “CNS inflammatory deficit in acute EAE animals (clinical score)” value (from here on “CNS inflammatory deficit”) was “reduced the CNS inflammatory deficit”.
Regarding `CCOc1cc(C=[N+]([O-])C(C)(C)CC(C)(C)C)ccc1OC` [Example 45, α-(3-Ethoxy-4-methoxyphenyl)-N-tert-octylnitrone], the “CNS inflammatory deficit” value in experiment [1] is listed as “reduced the CNS inflammatory deficit”.
Take `CCOc1ccccc1C=[N+]([O-])C(C)(C)C` [Example 7, α-(2-Ethoxyphenyl)-N-tert-butylnitrone]: the “CNS inflammatory deficit” value in experiment [1] is listed as “did not significantly reduce the CNS inflammatory deficit”. Moreover, the “Aβ peptide/ibotenate-induced learning deficit” value in experiment [2] was “reduced the Aβ peptide/ibotenate-induced learning deficit”. In addition, in the experiment with MRL/MpJ Fas^lpr mice, the “acquisition in T-maze task” value is “reduced acquisition values” and the “avoidance in T-maze task” value was “acquired avoidance skills earlier than untreated mutant mice”.
For the compound `COc1cc(C=[N+]([O-])C(C)(C)C)ccc1OCc1ccccc1` [Example 5, α-(4-Benzyloxy-3-methoxyphenyl)-N-tert-butylnitrone], the “CNS inflammatory deficit” value in experiment [1] is given as “did not significantly reduce the CNS inflammatory deficit”.
As for `CCCCCCCCOc1ccc(C=[N+]([O-])C(C)(C)C)c(F)c1` [Example 29, α-(2-Fluoro-4-octyloxyphenyl)-N-tert-butylnitrone], in experiment [1], the “CNS inflammatory deficit” value is “did not significantly reduce the CNS inflammatory deficit”.
For the compound `CCOc1ccc(C=[N+]([O-])C2CCCCC2)cc1OC` [Example 15, α-(4-Ethoxy-3-methoxyphenyl)-N-cyclohexylnitrone], the “CNS inflammatory deficit” value in experiment [1] is reported as “did not significantly reduce the CNS inflammatory deficit”.
For the compound `CCOc1ccc(C=[N+]([O-])C(C)(C)C)cc1` [Example 4, α-(4-Ethoxyphenyl)-N-tert-butylnitrone], the “CNS inflammatory deficit” value in experiment [1] is listed as “did not significantly reduce the CNS inflammatory deficit”.
On to `CC(C)(C)[N+]([O-])=Cc1ccc(OCc2ccccc2)cc1` [Example 41, α-(4-Benzyloxyphenyl)-N-tert-butylnitrone], for which the “CNS inflammatory deficit” value in experiment [1] is listed as “reduced the CNS inflammatory deficit”.
`CCOc1cc(C=[N+]([O-])C(C)C)ccc1OC` [Example 17, α-(3-Ethoxy-4-methoxyphenyl)-N-isopropyinitrone]: in experiment [1], the “CNS inflammatory deficit” value is given as “reduced the CNS inflammatory deficit”.
Consider `CCCC[N+]([O-])=Cc1ccc(OCC)cc1` [Example 10, α-(4-ethoxyphenyl)-N-n-butylnitrone], for which the “CNS inflammatory deficit” value in experiment [1] was “did not significantly reduce the CNS inflammatory deficit”.
In the case of `CCOc1ccc(C=[N+]([O-])C2CCCCC2)cc1` [Example 11, α-(4-Ethoxyphenyl)-N-cyclohexylnitrone], the “CNS inflammatory deficit” value in experiment [1] is “reduced the CNS inflammatory deficit”. Besides, in the experiment with MRL/MpJ Fas^lpr mice, the “acquisition in T-maze task” value was “reduced acquisition values” and the “avoidance in T-maze task” value is “acquired avoidance skills earlier than untreated mutant mice”.
Take `[O-][N+](=Cc1ccc(OCc2ccccc2)cc1)C1CCCC1` [Example 42, α-(4-Benzyloxyphenyl)-N-cyclopentylnitrone]: in experiment [1], the “CNS inflammatory deficit” value is “reduced the CNS inflammatory deficit”.
Take `CCCCCCOc1ccc(C=[N+]([O-])C2CCCCC2)cc1OCC` [Example 22, α-(3-Ethoxy-4-hexyloxyphenyl)-N-cyclohexylnitrone]: the “CNS inflammatory deficit” value in experiment [1] is recorded as “reduced the CNS inflammatory deficit”.
